Values joined by “and” are separate entries in the source; they are usually repeats but may differ in a detail not shown here. Equal values may be shown once. Read-outs that look alike come from different tables or passages of the source. Blank lines part the entries; values can stand above or below the molecule they belong to. Where a SMILES comes first, the peptide text is derived from it.
Assays:
[1] = Solution-gel (sol-gel) transition of each peptide; format: physicochemical
Protocol: In compositions, the influence of pH of 3 to 9, ionic strength of about 0 M to about 5 M salt concentration (for example, ZnCl2, NaCl etc.) via addition of any monovalent and/or divalent cation or temperature plays a critical role in preventing the self-assembly in formulation. In compositions, the pH maybe in the range of about 3 to 9. In some compositions, the amount of peptide is in a range of about 0.001% to 30% by weight and the temperature of the composition may be in a range of about 19° C. to 42° C.

existing elastin fibers = test: Temperature dependent self-assembly of ELPs in decellularized ex vivo dermises (Elastin van Gieson staining, elastin fiber density); conditions: for Elastin fiber integrated density (FIG. 1B): 100 μg/mL, compared to PBS of the same temperature; for Elastin van Gieson staining signal (FIG. 1A): decellularized dermises submerged in 100 μg/mL peptide, five days, 4, 37 or 42° C., compared to PBS
Protocol: The generation of elastin fibers involves the self-assembly process of coacervation causing an accumulation of hydrophobic tropoelastin molecules prior to being cross-linked at lysines to generate mature elastin fibers. Elastin-like peptides (ELPs) undergo temperature-driven conformational change upon heat referred to as inverse temperature transition (ITT).
Following decellularization, the skins, here after referred to as dermises, were washed three times in PBS buffer (1X) for 2 hours each. The decellularized dermises were submerged in either PBS, 100 μg/mL Pal-VGVAPG, or Ace-IGVAPG, for five days, with daily solution changes. Three ex vivo dermises for each treatment were incubated at 4° C., 37° C., or 42° C. The decellularized dermises were fixed overnight in 10% formalin, paraffin embedded and sections at 8 μm. H&E and Elastin van Gieson staining were performed to confirm decellularization and to visualize elastin fibers, respectively. Elastin fiber density quantification was performed via thresholding the elastin fibers using NIH ImageJ software and measurements were recorded.
H&E staining confirmed that the tissues were successfully decellularized (data not shown). […] FIG. 1A indicates the representative images of Elastin van Gieson stained decellularized dermises which were incubated with Pal-VGVAPG and Ace-IGVAPG at different temperatures while concentration was kept constant (100 μg/mL). Elastin fibers are stained black at a scale bar of 50 μm.
Statistical significance of differences between means was performed using two-way ANOVA followed by Tukey's multiple comparisons test. Error bars represent standard error of the mean (SEM). All analyses were performed using Prism 8 software (GraphPad, San Diego, CA, U.S.A.).

[2] = system: pre-existing elastin fibers; test: Concentration driven self-assembly in ex vivo skin treated topically (Elastin van Gieson stain); conditions: topical
Protocol: Self-assembly of biomolecules is dependent on a critical self-assembly concentration, where self-assembly biomolecules remain as monomers below a critical concentration and assemble above a specific concentration threshold.
Biopsies (12-mm) were treated topically with various concentrations of Ace-IGVAPG or Pal-VGVAPG (12.5, 25, 50 μg/mL) while being maintained in DMEM containing 10% FBS and 1% penicillin/streptomycin/amphotericin B. The skins were formalin fixed, paraffin embedded, sectioned at 8 μm and stain for elastin with the Elastin van Gieson stain.

ex vivo skin = test: pH dependent peptide self-assembly within intact ex vivo skin (click histology); conditions: propargylglycine versions of the peptides, 0.6 mg/mL, topical, pH 4 to 9
Protocol: To aid in visualization of the effects of pH and salinity on peptide self-assembly within tissue, peptides were labeled via F-moc chemistry with propargylglycine. Biopsies (12-mm) of abdominal skin explants were isolated, maintained, as stated in example 4, and were treated topically with the propargylglycine labeled peptides ([…]), twice a day for 5 days. The propargylglycine labeled peptides included A6K, IEIK-13, KLD-12, RADA-16, IGVPAG, and VGVPAG.
To determine how pH and salinity influences peptide assembly in the skin, the propargylglycine labeled peptides were prepared at various pH or salinity pH 3 to 9 or containing a salt content of 0.1-3.0%, respectively. The skins were fixed, cryoprotected, cryosectioned (8 μm) and stored at −20° C. until Copper(I)-Catalyzed Alkyne-Azide Cycloaddition (CuAAC), or click chemistry, was performed to detect peptide assembly. Representative results are shown herein.
The sections were washed, mounted with Fluoromount-G plus DAPI, and were imaged using the Zeiss Axio Observer Z1 Fluorescence Motorized Microscope.
Click chemistry is a technique that uses two biologically inert functional groups, an alkyne and an azide, which form a triazole in the presence of Copper(I). The alkyne on the terminus of the peptide negligibly impacts the aspects of molecule that will impact the penetration of the peptide in tissue (i.e. molecular weight, log P, isoelectric point, and self-assembly) allowing for the peptide to penetrate based on its inherent properties. Once the alkyne-peptide is delivered to the tissue, the sample is fixed, and “stained” with an azido-fluorophore. […] This click histology protocol allows for the peptide of interest to be selectively detected via fluorescence microscopy in the presence of endogenous peptides and/or proteins. […]

ex vivo skin biopsies = test: Skin elasticity (percent recovery) of ex vivo skin biopsies, TA.XT Plus Texture Analyzer; conditions: 25 μg/mL, 24 h topical treatment
Protocol: Following 24 hours, the TA.XT Plus Texture Analyzer was used to indent ex vivo skin with a 7-mm cylindrical probe with 40% strain and a withdrawal rate of 0.1 mm/s. The TA.XT Plus software generated a curve representative of the force (g) applied to the probe by the biopsy overtime (sec) and the areas under the curve for the duration of indentation and the withdrawal time of the probe were used to calculate the percent recovery.
A purely elastic material has a percent recovery of 100%. Since skin is viscoelastic, its recovery will never be equal to a pure elastic material, ex vivo skin, for example, has a percent recovery of 25% to 35%.

skin layers = test: Triggers of self-assembly within the skin layers

C0 for sol-gel transition by weight of the composition (w/w) [1]: 1.25%
Ionic strength trigger [1]: YES
Sol-gel transition pH [1]: 5
Temperature trigger [1]: YES
SMILES: CCCCCCCCCCCCCCCC(=O)NCC(=O)N[C@@H](Cc1cnc[nH]1)C(=O)O [PAL-GH, Palmityl dipeptide] (HELM PEPTIDE1{[CCCCCCCCCCCCCCCC(=O)[*:2]].G.H}$$$$V2.0)

SMILES: CC[C@H](C)[C@H](NC(C)=O)C(=O)NCC(=O)N[C@H](C(=O)N[C@H](C)C(=O)N1CCC[C@H]1C(=O)NCC(=O)O)C(C)C [ACE-IGVAPG, Elastin hexapeptide] (HELM PEPTIDE1{[ac].I.G.V.[dA].P.G}$$$$V2.0)
Elastin fiber integrated density (FIG. 1B) (existing elastin fibers; 42° C.): significant increase
Elastin van Gieson staining signal (FIG. 1A) (existing elastin fibers): highest increase at 37 °C
Elastin intensity (Elastin van Gieson stain, FIG. 2) ([2]; 25 μg/mL): increase
Elastin intensity (Elastin van Gieson stain, FIG. 2) ([2]; 50 μg/mL): increase
pH level at which peptide self-assembly was observed within the lower layers of the skin (ex vivo skin): 5 and 7
Greater recovery than non-treated samples (ex vivo skin biopsies): about 25%
Percent recovery compared to non-treated controls (FIG. 6B) (ex vivo skin biopsies; p=0.0056): significantly higher

C0 for sol-gel transition by weight of the composition (w/w) [1]: greater than 2%
SMILES: C[C@H](N)C(=O)N[C@@H](C)C(=O)N[C@@H](C)C(=O)N[C@@H](C)C(=O)N[C@@H](C)C(=O)N[C@@H](C)C(=O)N[C@@H](CCCCN)C(N)=O [AAAAAAK, A6K] (H-AAAAAAK-NH2)

Sol-gel transition pH [1]: 5
Temperature trigger ([1]; sol-gel transition): YES
C0 for sol-gel transition by weight of the composition (w/w) ([1]; w/w of the composition): 0.5%
Concentration trigger of self-assembly within the skin layers (skin layers): ≥ 0.5 % w/w
Temperature trigger of self-assembly within the skin layers (skin layers): 37 °C
pH trigger of self-assembly within the skin layers (skin layers): 5
SMILES: CCCCCCCCCCCCCCCC(=O)N[C@@H](CCCCN)C(=O)N[C@H](C(=O)N[C@H](C(=O)N[C@@H](CCCCN)C(=O)N[C@@H](CO)C(=O)O)[C@@H](C)O)[C@@H](C)O [PAL-KTTKS, Palmitoyl pentapeptide-4] (HELM PEPTIDE1{[CCCCCCCCCCCCCCCC(=O)[*:2]].K.T.T.K.S}$$$$V2.0)

Sol-gel transition pH [1]: 7
Ionic strength trigger ([1]; sol-gel transition): YES
C0 for sol-gel transition by weight of the composition (w/w) ([1]; w/w of the composition): 2%
SMILES: C[C@H](NC(=O)[C@H](CC(=O)O)NC(=O)[C@H](C)NC(=O)[C@H](CCCNC(=N)N)NC(=O)[C@H](C)NC(=O)[C@H](CC(=O)O)NC(=O)[C@H](C)NC(=O)[C@H](CCCNC(=N)N)NC(=O)[C@H](C)NC(=O)[C@H](CC(=O)O)NC(=O)[C@H](C)NC(=O)[C@H](CCCNC(=N)N)NC(=O)[C@H](C)NC(=O)[C@H](CC(=O)O)NC(=O)[C@H](C)NC(=O)[C@@H](N)CCCNC(=N)N)C(=O)O [RADARADARADARADA, RADA 16]

Sol-gel transition pH [1]: 3
Temperature trigger ([1]; sol-gel transition): YES
C0 for sol-gel transition by weight of the composition (w/w) ([1]; w/w of the composition): 2%
SMILES: CC[C@H](C)[C@H](N)C(=O)N[C@@H](CCC(=O)O)C(=O)N[C@H](C(=O)N[C@@H](CCCCN)C(=O)N[C@H](C(=O)N[C@@H](CCC(=O)O)C(=O)N[C@H](C(=O)N[C@@H](CCCCN)C(=O)N[C@H](C(=O)N[C@@H](CCC(=O)O)C(=O)N[C@H](C(=O)N[C@@H](CCCCN)C(=O)N[C@H](C(N)=O)[C@@H](C)CC)[C@@H](C)CC)[C@@H](C)CC)[C@@H](C)CC)[C@@H](C)CC)[C@@H](C)CC [IEIKIEIKIEIKI, IEK-13]

Sol-gel transition pH [1]: 5
C0 for sol-gel transition by weight of the composition (w/w) ([1]; w/w of the composition): 2%
SMILES: CC(C)C[C@H](NC(=O)[C@H](CC(=O)O)NC(=O)[C@H](CC(C)C)NC(=O)[C@H](CCCCN)NC(=O)[C@H](CC(C)C)NC(=O)[C@H](CC(=O)O)NC(=O)[C@H](CC(C)C)NC(=O)[C@H](CCCCN)NC(=O)[C@H](CC(C)C)NC(=O)[C@H](CC(=O)O)NC(=O)[C@H](CC(C)C)NC(=O)[C@@H](N)CCCCN)C(N)=O [KLDLKLDLKLDL, KLD-12] (H-KLDLKLDLKLDL-NH2)
pH level at which peptide self-assembly was observed within the lower layers of the skin (ex vivo skin): 6

Sol-gel transition pH [1]: 7
Ionic strength trigger ([1]; sol-gel transition): YES
Temperature trigger ([1]; sol-gel transition): YES
C0 for sol-gel transition by weight of the composition (w/w) ([1]; w/w of the composition): 1%
Concentration trigger of self-assembly within the skin layers (skin layers): > 0.01 % w/w
Temperature trigger of self-assembly within the skin layers (skin layers): 37 °C
pH trigger of self-assembly within the skin layers (skin layers): 7
SMILES: CCCCCCCCCCCCCCCC(=O)N[C@H](C(=O)NCC(=O)N[C@H](C(=O)N[C@@H](C)C(=O)N1CCC[C@H]1C(=O)NCC(=O)O)C(C)C)C(C)C [PAL-VGVAPG, Palmitoyl hexapeptide] (HELM PEPTIDE1{[CCCCCCCCCCCCCCCC(=O)[*:2]].V.G.V.A.P.G}$$$$V2.0)
Elastin fiber integrated density (FIG. 1B) (existing elastin fibers; 37° C.): significant increase
Elastin fiber integrated density (FIG. 1B) (existing elastin fibers; 42° C.): significant increase
Elastin van Gieson staining signal (FIG. 1A) (existing elastin fibers): increase in signal as temperature increased
Elastin intensity (Elastin van Gieson stain, FIG. 2) ([2]; 12.5 μg/mL): increased
Elastin intensity (Elastin van Gieson stain, FIG. 2) ([2]; 25 μg/mL): increased
Elastin intensity (Elastin van Gieson stain, FIG. 2) ([2]; 50 μg/mL): increased
pH level at which peptide self-assembly was observed within the lower layers of the skin (ex vivo skin): 6 and 8
